Laboratory results published in patent US7727949B2, “Cleaning agent for thermostatic chambers” (Wako Pure Chemical Industries, Ltd., priority 2005, dated 2010).

Assays:
Assay in all cases: Study of antimicrobial activity in the presence of proteins (MIC)
Type in all cases: cell-based
[1] = system: Staphylococcus aureus (NBRC12732)
Experimental: (§1) GOT (glutamic-oxaloacetic transaminase) solution: GOT Substrate-Enzyme solution and GOT-2α•KG solution which were components of L type Wako GOT•J2 kit (produced by Wako Pure Chemical Industries, Ltd.) were prepared with distilled water so as to become a 0.2 w/w % aqueous solution.
(§2) GPT (glutamic-pyruvic transaminase) solution: GOT Substrate-Enzyme solution and GOT•2α-KG solution which were components of L type Wako GPT•J2 kit (produced by Wako Pure Chemical Industries, Ltd.) were prepared with distilled water so as to become a 0.2 w/w % aqueous solution.
(§3) Serum: Control Serum II Wako (produced by Wako Pure Chemical Industries, Ltd.) was prepared with distilled water so as to become a 0.2 w/w % aqueous solution with distilled water.
(§4) In a sterilized petri dish having a diameter of 90 mm, an aqueous solution which was obtained by diluting each of agents with distilled water was added such that a concentration of the agent become each predetermined concentrations when the solution is prepared to a total volume of 20 mL, and the agent aqueous solution and a reagent solution such that a final concentration of each of components (GOT, GPT, and serum) in the reagent become 100 μg/mL when the solution is prepared to a total volume of 20 mL. And then, sterilized water was added into the petri dish such that a total volume of sterilized water and the agent aqueous solution become 2 mL. Further, 18 mL of nutrient agar medium, which was sterilized with high pressure steam and preserved at 50° C.±2° C., was added into the petri dish, and it was solidified to obtain an agar plate medium. Furthermore, as a reference, agar plate medium obtained by using pure water instead of the agent solution was also prepared.
(§5) The individual test microorganisms, which was preliminarily cultured in bouillon medium in advance until 1×10^8 microorganisms/mL, was diluted with sterilized physiological saline for 100 times (to 1×10^6 microorganisms/mL). Next, the prepared solution of the test microorganisms was smeared with a platinum loop on the surface of the agar plate medium prepared in (2), and the medium was cultured at 35° C.±2° C. for 24 hours.
(§6) After the cultivation, confirming the presence or not of the growth of the microorganism on the surface of the medium was conducted, a minimum concentration of the agent, where growth of the microorganisms cannot be recognized, was determine as the minimum inhibitory concentration (MIC, μg/mL) of the agent.

[2] = system: Escherichia coli (NBRC3972)
Experimental: as §1, §2, §3, §4, §5, §6

[3] = system: Pseudonas aeruginosa (NBRC12689)
Experimental: as §1, §2, §3, §4, §5, §6

[4] = system: Bacillus subtilis (NBRC13719)
Experimental: as §1, §2, §3, §4, §5, §6

Compound	Minimum Inhibitory Concentration S.a ([1]; GOT 100 μg/mL) [µg/mL]	Minimum Inhibitory Concentration S.a ([1]; GPT 100 μg/mL) [µg/mL]	Minimum Inhibitory Concentration S.a ([1]; Pure Water) [µg/mL]	Minimum Inhibitory Concentration S.a ([1]; Serum 100 μg/mL) [µg/mL]	Minimum Inhibitory Concentration E.c ([2]; GOT 100 μg/mL) [µg/mL]	Minimum Inhibitory Concentration E.c ([2]; GPT 100 μg/mL) [µg/mL]	Minimum Inhibitory Concentration E.c ([2]; Pure Water) [µg/mL]	Minimum Inhibitory Concentration E.c ([2]; Serum 100 μg/mL) [µg/mL]	Minimum Inhibitory Concentration P.a ([3]; GOT 100 μg/mL) [µg/mL]	Minimum Inhibitory Concentration P.a ([3]; GPT 100 μg/mL) [µg/mL]	Minimum Inhibitory Concentration P.a ([3]; Pure Water) [µg/mL]	Minimum Inhibitory Concentration P.a ([3]; Serum 100 μg/mL) [µg/mL]	Minimum Inhibitory Concentration B.s ([4]; GOT 100 μg/mL) [µg/mL]	Minimum Inhibitory Concentration B.s ([4]; GPT 100 μg/mL) [µg/mL]	Minimum Inhibitory Concentration B.s ([4]; Pure Water) [µg/mL]	Minimum Inhibitory Concentration B.s ([4]; Serum 100 μg/mL) [µg/mL]
Didecyldimethylammonium adipate [DDAA]	<1	<1	<1	<1	50	50	50	50	200	200	200	200	<1	<1	<1	<1
benzalkonium chloride [BC, reference compound]	<1	50	<1	<1	200	200	100	200	>200	>200	>200	>200	10	10	10	10
CCCCCCCCCCCCN(CCCN)CCCN [TAA, N-bis(3-aminopropyl)dodecylamine]	10	10	10	10	50	50	50	50	100	100	10	100	10	10	10	10
